Legend:
[1] = tested on: normal NK cells expanded with K562-aAPC; assay: drug sensitivity score (DSS) (DSS units); higher = more sensitive; extreme values may be limits of the assay; conditions: 72 h; IL-2 2.5 ng/mL
Protocol: (§1)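 Drug sensitivity and resistance testing on K562-aAPC-expanded normal NK cells: 5 concentrations (10-fold steps over a 10,000-fold range), 72 h at 37 °C, viability by CellTiter-Glo normalised to DMSO and benzethonium chloride controls; DSS from the fitted curve.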

[2] = tested on: normal NK cells expanded with K562-aAPC; assay: percent inhibition of viability; higher = more inhibition; conditions: 72 h, IL-2 2.5 ng/mL
Protocol: as §1

[3] = tested on: normal primary NK cells, pool 1 (3 donors), resting (IL-2 0 ng/mL); assay: as above; conditions: 72 h
[4] = tested on: normal primary NK cells, pool 2 (3 donors) (IL-2 2.5 ng/mL); assay: as above; conditions: 72 h
KAI3 (IL-2 2.5 ng/mL) [5] = assay: as above; conditions: 72 h
KHYG-1 (IL-2 2.5 ng/mL) [6] = assay: as above; conditions: 72 h
NKL (IL-2 2.5 ng/mL) [7] = assay: as above; conditions: 72 h
YT (IL-2 2.5 ng/mL) [8] = assay: as above; conditions: 72 h
IMC-1 (IL-2 20 ng/mL) [9] = assay: as above; conditions: 72 h
DERL-7 (IL-2 2.5 ng/mL) [10] = assay: as above; conditions: 72 h
NK-92 (IL-2 2.5 ng/mL) [11] = assay: as above; conditions: 72 h
[12] = tested on: normal primary NK cells, pool 3 (3 donors) (IL-2 2.5 ng/mL); assay: as above; conditions: 72 h
NK-YS (IL-2 2.5 ng/mL) [13] = assay: as above; conditions: 72 h
[14] = tested on: normal primary NK cells, pool 1 (3 donors) (IL-2 2.5 ng/mL); assay: as above; conditions: 72 h
SNK-6 (IL-2 2.5 ng/mL) [15] = assay: as above; conditions: 72 h
[16] = tested on: normal primary NK cells, pool 1 (3 donors), resting (IL-2 0 ng/mL); assay: drug sensitivity score (DSS) (DSS units); higher = more sensitive; extreme values may be limits of the assay; conditions: 72 h
[17] = tested on: normal primary NK cells, pool 2 (3 donors) (IL-2 2.5 ng/mL); assay: as above; conditions: 72 h
KAI3 (IL-2 2.5 ng/mL) [18] = assay: as above; conditions: 72 h
KHYG-1 (IL-2 2.5 ng/mL) [19] = assay: as above; conditions: 72 h
NKL (IL-2 2.5 ng/mL) [20] = assay: as above; conditions: 72 h
YT (IL-2 2.5 ng/mL) [21] = assay: as above; conditions: 72 h
IMC-1 (IL-2 20 ng/mL) [22] = assay: as above; conditions: 72 h
DERL-7 (IL-2 2.5 ng/mL) [23] = assay: as above; conditions: 72 h
NK-92 (IL-2 2.5 ng/mL) [24] = assay: as above; conditions: 72 h
[25] = tested on: normal primary NK cells, pool 3 (3 donors) (IL-2 2.5 ng/mL); assay: as above; conditions: 72 h
NK-YS (IL-2 2.5 ng/mL) [26] = assay: as above; conditions: 72 h
[27] = tested on: normal primary NK cells, pool 1 (3 donors) (IL-2 2.5 ng/mL); assay: as above; conditions: 72 h
SNK-6 (IL-2 2.5 ng/mL) [28] = assay: as above; conditions: 72 h

NC(=O)c1cccc(-c2cccc(OC(=O)NC3CCCCC3)c2)c1 [URB597] (max concentration tested 1000 nM)
Conditions	drug sensitivity score
DERL-7 (IL-2 2.5 ng/mL) [23]	0
IMC-1 (IL-2 20 ng/mL) [22]	0
KAI3 (IL-2 2.5 ng/mL) [18]	0.21
KHYG-1 (IL-2 2.5 ng/mL) [19]	0
NK-92 (IL-2 2.5 ng/mL) [24]	0
NK-YS (IL-2 2.5 ng/mL) [26]	0
NKL (IL-2 2.5 ng/mL) [20]	2.41
SNK-6 (IL-2 2.5 ng/mL) [28]	0
YT (IL-2 2.5 ng/mL) [21]	0
[1]	0
[16]	0
[17]	0
[25]	0
[27]	0

percent inhibition of viability [%]
Conditions	0.1 nM	1 nM	10 nM	100 nM	1000 nM
DERL-7 (IL-2 2.5 ng/mL) [10]	11	4.35	12	5.02	5.08
IMC-1 (IL-2 20 ng/mL) [9]	-4	4.78	2.31	4	3.07
KAI3 (IL-2 2.5 ng/mL) [5]	-3.62	-6.19	-2.65	-2.84	16.1
KHYG-1 (IL-2 2.5 ng/mL) [6]	-1.98	3.31	2.01	2.83	7.66
NK-92 (IL-2 2.5 ng/mL) [11]	1.97	3.05	12.2	-3.48	7.28
NK-YS (IL-2 2.5 ng/mL) [13]	-1.3	0.73	8.14	5.17	8.51
NKL (IL-2 2.5 ng/mL) [7]	3.64	0.02	13.3	15.1	14.2
SNK-6 (IL-2 2.5 ng/mL) [15]	-7.3	9.09	10.3	2.22	2.83
YT (IL-2 2.5 ng/mL) [8]	1.76	2.28	2.53	3.49	9.4
[2]	-5.77	-3.62	-1	7.42	7.56
[3]	-1.65	-9.18	1.01	-15.8	-6.01
[4]	-11.5	-5.88	15.1	-7.18	8.87
[12]	-10.1	-1.33	5.88	-9.83	6.07
[14]	5.21	-3.54	1.12	-15.5	-7.59

Clc1ccc(Nc2nnc(Cc3ccncc3)c3ccccc23)cc1 [Vatalanib] (max concentration tested 10000 nM)
Conditions	drug sensitivity score
DERL-7 (IL-2 2.5 ng/mL) [23]	0
IMC-1 (IL-2 20 ng/mL) [22]	2.18
KAI3 (IL-2 2.5 ng/mL) [18]	0.45
KHYG-1 (IL-2 2.5 ng/mL) [19]	0.55
NK-92 (IL-2 2.5 ng/mL) [24]	2.23
NK-YS (IL-2 2.5 ng/mL) [26]	0.39
NKL (IL-2 2.5 ng/mL) [20]	2.05
SNK-6 (IL-2 2.5 ng/mL) [28]	0
YT (IL-2 2.5 ng/mL) [21]	0.07
[1]	0
[16]	0.01
[17]	0
[25]	0
[27]	0

percent inhibition of viability [%]
Conditions	1 nM	10 nM	100 nM	1000 nM	10000 nM
DERL-7 (IL-2 2.5 ng/mL) [10]	1.72	5.91	0.68	4.05	0.46
IMC-1 (IL-2 20 ng/mL) [9]	-2.63	0.44	3.66	5.09	30.7
KAI3 (IL-2 2.5 ng/mL) [5]	0.27	-2.4	-1.03	-4.6	20.6
KHYG-1 (IL-2 2.5 ng/mL) [6]	0.78	0.74	8.34	3.67	19.5
NK-92 (IL-2 2.5 ng/mL) [11]	5.05	7.47	10.4	6.67	30.2
NK-YS (IL-2 2.5 ng/mL) [13]	0.51	-0.15	5.11	1.16	15.7
NKL (IL-2 2.5 ng/mL) [7]	-15.8	-12.6	-1.27	4.13	31.1
SNK-6 (IL-2 2.5 ng/mL) [15]	9.43	19.1	24.5	8.51	0.02
YT (IL-2 2.5 ng/mL) [8]	-1.15	0.78	6.42	-0.36	12.6
[2]	-5.26	1.3	-1.96	9.03	9.76
[3]	8.82	-6.33	-5.39	-29.3	12.2
[4]	-10.1	-2.12	-4.7	-5.37	2.5
[12]	-15.5	-8.9	-5.65	-2.32	-4.9
[14]	-1.16	-14.2	-9.3	-17.4	-10.3

— the supplement of paper PMC5908809
